Measured values published in PubChem BioAssay AID1259407 (Chemical Carcinogenesis Research Information System (CCRIS), 2018).
Activity calls are given as the source filed them. No rule for the calls is given here.

System: CCRIS mutagenicity, Ames/micronucleus/aberration tests
Assay: CCRIS mutagenicity studies
[1] = Test System: AMES SALMONELLA TYPHIMURIUM, Strain/Indicator: TA97, Metabolic Activation: HAMSTER, LIVER, S-9, AROCLOR 1254 (10%), Method: PREINCUBATION
[2] = Test System: AMES SALMONELLA TYPHIMURIUM, Strain/Indicator: TA97, Metabolic Activation: HAMSTER, LIVER, S-9, AROCLOR 1254 (30%), Method: PREINCUBATION
[3] = Test System: AMES SALMONELLA TYPHIMURIUM, Strain/Indicator: TA97, Metabolic Activation: NONE, Method: PREINCUBATION
[4] = Test System: AMES SALMONELLA TYPHIMURIUM, Strain/Indicator: TA97, Metabolic Activation: RAT, LIVER, S-9, AROCLOR 1254 (10%), Method: PREINCUBATION
[5] = Test System: AMES SALMONELLA TYPHIMURIUM, Strain/Indicator: TA97, Metabolic Activation: RAT, LIVER, S-9, AROCLOR 1254 (30%), Method: PREINCUBATION
[6] = Test System: AMES SALMONELLA TYPHIMURIUM, Strain/Indicator: TA98, Metabolic Activation: NONE, Method: PREINCUBATION
[7] = Test System: AMES SALMONELLA TYPHIMURIUM, Strain/Indicator: TA100, Metabolic Activation: NONE, Method: PREINCUBATION
[8] = Test System: AMES SALMONELLA TYPHIMURIUM, Strain/Indicator: TA1535, Metabolic Activation: HAMSTER, LIVER, S-9, AROCLOR 1254 (10%), Method: PREINCUBATION
[9] = Test System: AMES SALMONELLA TYPHIMURIUM, Strain/Indicator: TA1535, Metabolic Activation: HAMSTER, LIVER, S-9, AROCLOR 1254 (30%), Method: PREINCUBATION
[10] = Test System: AMES SALMONELLA TYPHIMURIUM, Strain/Indicator: TA1535, Metabolic Activation: NONE, Method: PREINCUBATION
[11] = Test System: AMES SALMONELLA TYPHIMURIUM, Strain/Indicator: TA1535, Metabolic Activation: RAT, LIVER, S-9, AROCLOR 1254 (10%), Method: PREINCUBATION
[12] = Test System: AMES SALMONELLA TYPHIMURIUM, Strain/Indicator: TA1535, Metabolic Activation: RAT, LIVER, S-9, AROCLOR 1254 (30%), Method: PREINCUBATION
[13] = Test System: AMES SALMONELLA TYPHIMURIUM, Strain/Indicator: TA1537, Metabolic Activation: HAMSTER, LIVER, S-9, AROCLOR 1254 (30%), Method: PREINCUBATION
[14] = Test System: AMES SALMONELLA TYPHIMURIUM, Strain/Indicator: TA1537, Metabolic Activation: NONE, Method: PREINCUBATION
[15] = Test System: AMES SALMONELLA TYPHIMURIUM, Strain/Indicator: TA1537, Metabolic Activation: RAT, LIVER, S-9, AROCLOR 1254 (30%), Method: PREINCUBATION
[16] = Test System: AMES SALMONELLA TYPHIMURIUM, Strain/Indicator: TA98, Metabolic Activation: HAMSTER, LIVER, S-9, AROCLOR 1254 (10 OR 30%), Method: PREINCUBATION
[17] = Test System: AMES SALMONELLA TYPHIMURIUM, Strain/Indicator: TA98, Metabolic Activation: RAT, LIVER, S-9, AROCLOR 1254 (10 OR 30%), Method: PREINCUBATION
[18] = Test System: AMES SALMONELLA TYPHIMURIUM, Strain/Indicator: TA100, Metabolic Activation: HAMSTER, LIVER, S-9, AROCLOR 1254 (10 OR 30%), Method: PREINCUBATION
[19] = Test System: AMES SALMONELLA TYPHIMURIUM, Strain/Indicator: TA100, Metabolic Activation: RAT, LIVER, S-9, AROCLOR 1254 (10 OR 30%), Method: PREINCUBATION

Structure (SMILES) | mutagenic call [1] | mutagenic call [2] | mutagenic call [3] | mutagenic call [4] | mutagenic call [5] | mutagenic call [6] | mutagenic call [7] | mutagenic call [8] | mutagenic call [9] | mutagenic call [10] | mutagenic call [11] | mutagenic call [12] | mutagenic call [13] | mutagenic call [14] | mutagenic call [15] | mutagenic call [16] | mutagenic call [17] | mutagenic call [18] | mutagenic call [19] | other results
CCCCCCCCCCCCCCCCCC[N+](C)(C)Cc1ccccc1 | inactive; negative | inactive; negative | inactive; negative | inactive; negative | inactive; negative | inactive; negative | inactive; negative | inactive; negative | inactive; negative | inactive; negative | inactive; negative | inactive; negative | inactive; negative | inactive; negative | inactive; negative | – | – | – | – | mutagenic call (Test System: AMES SALMONELLA TYPHIMURIUM, Strain/Indicator: TA98, Metabolic Activation: HAMSTER, LIVER, S-9, AROCLOR 1254 (10%), Method: PREINCUBATION): inactive; negative; mutagenic call (Test System: AMES SALMONELLA TYPHIMURIUM, Strain/Indicator: TA98, Metabolic Activation: HAMSTER, LIVER, S-9, AROCLOR 1254 (30%), Method: PREINCUBATION): inactive; negative; mutagenic call (Test System: AMES SALMONELLA TYPHIMURIUM, Strain/Indicator: TA98, Metabolic Activation: RAT, LIVER, S-9, AROCLOR 1254 (10%), Method: PREINCUBATION): inactive; negative; mutagenic call (Test System: AMES SALMONELLA TYPHIMURIUM, Strain/Indicator: TA98, Metabolic Activation: RAT, LIVER, S-9, AROCLOR 1254 (30%), Method: PREINCUBATION): inactive; negative; mutagenic call (Test System: AMES SALMONELLA TYPHIMURIUM, Strain/Indicator: TA100, Metabolic Activation: HAMSTER, LIVER, S-9, AROCLOR 1254 (10%), Method: PREINCUBATION): inactive; negative; mutagenic call (Test System: AMES SALMONELLA TYPHIMURIUM, Strain/Indicator: TA100, Metabolic Activation: HAMSTER, LIVER, S-9, AROCLOR 1254 (30%), Method: PREINCUBATION): inactive; negative; mutagenic call (Test System: AMES SALMONELLA TYPHIMURIUM, Strain/Indicator: TA100, Metabolic Activation: RAT, LIVER, S-9, AROCLOR 1254 (10%), Method: PREINCUBATION): inactive; negative; mutagenic call (Test System: AMES SALMONELLA TYPHIMURIUM, Strain/Indicator: TA100, Metabolic Activation: RAT, LIVER, S-9, AROCLOR 1254 (30%), Method: PREINCUBATION): inactive; negative
CC(C)CCCCCOC(=O)C[S][Sn]([CH3])([S]CC(=O)OCCCCCC(C)C)[S]CC(=O)OCCCCCC(C)C | inactive; negative | inactive; negative | inactive; negative | inactive; negative | inactive; negative | inactive; negative | inactive; negative | inactive; negative | inactive; negative | inactive; negative | inactive; negative | inactive; negative | inactive; negative | inactive; negative | inactive; negative | inactive; negative | inactive; negative | inactive; negative | inactive; negative | –
CCCCN(C(CCC)OC(C)=O)[N+](=O)[O-] (stereo unspecified) | – | – | – | – | – | – | – | – | – | – | – | – | – | – | – | – | – | – | – | mutagenic call (Test System: E. COLI, Strain/Indicator: WP2 (HCR-), Metabolic Activation: NONE): active; positive
CCCCN(CCCC(=O)O)N=O | – | – | – | – | – | – | – | – | – | inactive; negative | – | – | – | – | – | – | – | – | – | mutagenic call (End Point: IN VITRO MICRONUCLEUS, Test System: CHL/IU CELLS, Metabolic Activation: NONE): active; positive; mutagenic call (Test System: AMES SALMONELLA TYPHIMURIUM, Strain/Indicator: TA100, Metabolic Activation: BOVINE, URINARY BLADDER, S-9, Method: PREINCUBATION): inactive; negative; mutagenic call (Test System: AMES SALMONELLA TYPHIMURIUM, Strain/Indicator: TA100, Metabolic Activation: PIG, URINARY BLADDER, S-9, Method: PREINCUBATION): inactive; negative; mutagenic call (Test System: AMES SALMONELLA TYPHIMURIUM, Strain/Indicator: TA100, Metabolic Activation: RAT, LIVER, MICROSOMES, SODIUM PHENOBARBITONE, Method: PREINCUBATION): inactive; negative; mutagenic call (Test System: AMES SALMONELLA TYPHIMURIUM, Strain/Indicator: TA100, Metabolic Activation: RAT, LIVER, S-9, AROCLOR, Method: PREINCUBATION): inactive; negative; mutagenic call (Test System: AMES SALMONELLA TYPHIMURIUM, Strain/Indicator: TA1535, Metabolic Activation: RAT, LIVER, MICROSOMES, SODIUM PHENOBARBITONE, Method: PREINCUBATION): inactive; negative; mutagenic call (Test System: AMES SALMONELLA TYPHIMURIUM, Strain/Indicator: TA1535, Metabolic Activation: RAT, LIVER, S-9, AROCLOR, Method: PREINCUBATION): inactive; negative; mutagenic call (Test System: AMES SALMONELLA TYPHIMURIUM, Strain/Indicator: TA1535, Metabolic Activation: RAT, LIVER, S-9, KC500 OR PHENOBARBITAL, Method: LIQUID SUSPENSION): active; positive
C[C@@H]1O[C@@H](OC[C@H]2O[C@@H](Oc3c(-c4ccc(O)c(O)c4)oc4cc(O)cc(O)c4c3=O)[C@H](O)[C@@H](O)[C@@H]2O)[C@H](O)[C@H](O)[C@H]1O | – | – | – | – | – | – | – | – | – | – | – | – | – | – | – | – | – | – | – | mutagenic call (Test System: Ames Salmonella typhimurium, Strain/Indicator: TA98, Metabolic Activation: None, Method: Standard plate): inactive; negative; mutagenic call (Test System: Ames Salmonella typhimurium, Strain/Indicator: TA98, Metabolic Activation: Rat, Liver, S-9, Aroclor 1254, Method: Standard Plate): inactive; negative
CN1C(CSCC(F)(F)F)Nc2cc(Cl)c(S(N)(=O)=O)cc2S1(=O)=O (stereo unspecified) | – | – | inactive; negative | – | – | inactive; negative | inactive; negative | – | – | inactive; negative | – | – | – | – | – | inactive; negative | inactive; negative | inactive; negative | inactive; negative | mutagenic call (Test System: AMES SALMONELLA TYPHIMURIUM, Strain/Indicator: TA97, Metabolic Activation: HAMSTER, LIVER, S-9, AROCLOR 1254 (10 OR 30%), Method: PREINCUBATION): inactive; negative; mutagenic call (Test System: AMES SALMONELLA TYPHIMURIUM, Strain/Indicator: TA97, Metabolic Activation: RAT, LIVER, S-9, AROCLOR 1254 (10 OR 30%), Method: PREINCUBATION): inactive; negative; mutagenic call (Test System: AMES SALMONELLA TYPHIMURIUM, Strain/Indicator: TA1535, Metabolic Activation: HAMSTER, LIVER, S-9, AROCLOR 1254 (10 OR 30%), Method: PREINCUBATION): inactive; negative; mutagenic call (Test System: AMES SALMONELLA TYPHIMURIUM, Strain/Indicator: TA1535, Metabolic Activation: RAT, LIVER, S-9, AROCLOR 1254 (10 OR 30%), Method: PREINCUBATION): inactive; negative
